Converted amounts (≈) assume the structure as drawn.
Columns and labels:
[1] = Cytotoxicity MTT assay; format: cell-based; settings: human, BJ cells (normal human skin fibroblasts), read-out: CC50 (concentration required for a 50 % reduction of cell viability)
Method: Normal human skin fibroblasts (BJ), human hepatocellular carcinoma (HepG2) and human breast adenocarcinoma (MCF-7) were obtained from American Type Culture Collection (ATCC, England, UK). The cells were cultured in Eagle’s minimum essential medium (EMEM, ATCC) supplemented with 10 % fetal bovine serum (FBS, PAA Laboratories), 100 U/mL penicillin and 100 μg/mL streptomycin (Sigma-Aldrich). In the case of the MCF-7 cell line, the culture medium was additionally supplemented with 0.01 μg/mL of human recombinant insulin (Sigma-Aldrich). The cells were grown in 75-cm^2 flasks and maintained at 37 °C in a humidified atmosphere of 5 % CO2 and 95 % air.
In order to determine the cytotoxicity, BJ cells were seeded in flat-bottom 96-well plates in 100 μL of a complete growth medium at a concentration of 1.7 × 10^4 cells/well and incubated for 24 h at 37 °C in a humidified atmosphere of 5 % CO2. Immediately before drug treatment, the synthesized compounds (1, 2, 4, 5, 6, 7, 10) were dissolved in dimethyl sulfoxide (DMSO, Sigma-Aldrich) and then diluted in cell culture medium supplemented with 2 % FBS. […] After incubation, the growth medium was replaced with 100 μL of the appropriate serial dilutions of the investigated compounds. Untreated cells were used as negative controls, and different concentrations of DMSO were used as the solvent control. The cell cultures were incubated at 37 °C for 24 h. The cytotoxicity was estimated using the 3-(4,5-dimethylthiazol-2-yl)-2,5-diphenyltetrazolium bromide (MTT) assay as described by Mosmann with some modifications (Mosmann, [1983]). Briefly, the cells were incubated for 3 h with 25 μL of MTT solution ([…] in PBS buffer) per well. The MTT assay is a rapid colorimetric method based on the conversion of mitochondrial succinate dehydrogenase from yellow, soluble tetrazolium salt to blue formazan crystals to determine the number of viable cells. In order to dissolve formazan crystals in live cells, 100 μL of SDS-HCl solution (10 % SDS in 0.01 N HCl) was added per well. After overnight incubation, absorbance was measured at 570 nm using microplate reader (BioTek ELx50). The MTT assay was repeated in three independent experiments performed in octuplicates. The half-maximal cytotoxic concentration (CC50) was defined as the compound concentration (μg/mL) required to reduce cell viability to 50 %. Therapeutic index (TI) is a widely accepted parameter to represent the specificity of antibacterial agents for human (Begg et al., [1999]). In this study, the in vitro TI values were calculated as the ratio of CC50 (cytotoxic activity) and MIC (antibacterial activity); thus, greater values of in vitro therapeutic index indicate safer specificity for eukaryotic cells.
The data were analyzed using one-way ANOVA test followed by Dunnett’s test. Differences were considered as significant with p < 0.01 (GraphPad Prism 5, Version 5.04 Software). The values of CC50 and IC50 were calculated via 4-parameter nonlinear regression analyses using GraphPad Prism 5, version 5.04.

[2] = system: Lactobacillus spp.; experiment: Broth microdilution MIC; format: cell-based
Text: (§1) Panel reference strains of bacteria from the American Type Culture Collection or Polish Collection of Microorganisms, including aerobic Gram-positive bacteria: Staphylococcus aureus ATCC 25923 and Staphylococcus epidermidis ATCC 12228, and aerobic Gram-negative bacteria: Escherichia coli ATCC 25922 and Pseudomonas aeruginosa ATCC 9027, as well as microaerobic Gram-positive bacteria: Lactobacillus spp., Lactobacillus acidophilus PCM 2105, Streptococcus mutans PCM 2502 and Streptococcus sanguinis PCM 2335, were used. Microbial suspensions with an optical density of 0.5 McFarland standard at 1.5 × 10^8 CFU/mL (CFU: colony forming unit) were prepared in sterile 0.9 % NaCl. Mueller–Hinton (M–H) broth and M–H agar (Oxoid Ltd., England) for aerobic strains, and MRS Broth Lactobacillus, MRS Agar Lactobacillus (BioMaxima S.A., Poland), BHI Broth and BHI agar (BioMaxima S.A., Poland) for microaerobic strains were used in the microbial tests.
(§2) A broth microdilution method was used to evaluate the minimum inhibition concentration (MIC) according to the CLSI document (CLSI performance standards for antimicrobial susceptibility testing, 2008, Eighteenth International Supplement, CLSI document M7-MIC, Clinical Laboratory Standards Institute, Wayne) with some modifications. […] A serial doubling dilution of the compounds was prepared in 96-well plates (200 μL per well). A suitable medium (M-H Broth, MRS Broth Lactobacillus, BHI Broth) was used as a diluent. The final concentrations of derivatives were 1000–0.015 μg/mL. Finally, 2 μL of inoculum of the tested bacterial strain (1.5 × 10^8 CFU/mL) was added to each well. The tests were performed either at 36 °C for 18 h (aerobic strains) or at 40 h (microaerobic strains). After incubation, the panel was digitally analyzed at 600 nm using the microplate reader Bio Tech Synergy (USA) with a dedicated software system. The growth intensity in each well was compared with the negative and positive controls.

[3] = system: aerobic Gram-positive bacteria; experiment: Broth microdilution MIC, summary in text; format: cell-based; settings: range over compounds and strains; read-out: MIC against aerobic Gram-positive bacteria
Text: as §1, §2

[4] = system: pathogenic microaerobic bacteria (causing dental caries); experiment: Broth microdilution MIC, summary in text; format: cell-based; settings: range over compounds and strains; read-out: MIC against pathogenic microaerobic bacteria
Text: as §1, §2

Row | Structure (SMILES) | CC50 at 24 h [1] | melting point | Minimum inhibitory concentration (MIC), Lactobacillus spp. [2] | MIC [3] | MIC [4] | MIC ([2]; Lactobacillus, read-out: Minimum inhibitory concentration (MIC), Lactobacillus spp.)
1 | O=C(NNC(=S)Nc1ccc(Cl)cc1Cl)c1cccnc1 [Compound 7, 4-(2,4-Dichlorophenyl)-1-(pyridin-3-yl)carbonylthiosemicarbazide] | 88.3 µg/mL (≈ 259 µM) | 196 to 197 °C |  |  |  | 
2 | CSc1ccc(NC(=S)NNC(=O)c2cccnc2)cc1 [Compound 6, 4-(4-Methylthiophenyl)-1-(pyridin-3-yl)carbonylthiosemicarbazide] | 917 µg/mL (≈ 2880 µM) | 176 to 177 °C | did not limit the growth | 15.6 to 500 µg/mL |  | 
3 | O=C(NNC(=S)Nc1ccccc1Cl)c1ccccn1 [Compound 2, 4-(2-Chlorophenyl)-1-(pyridin-2-yl)carbonylthiosemicarbazide] |  | 172 to 174 °C |  | 15.6 to 500 µg/mL | 7.81 to 500 µg/mL | 
4 | O=C(NNC(=S)Nc1ccc(Cl)cc1Cl)c1ccccn1 [Compound 4, 4-(2,4-Dichlorophenyl)-1-(pyridin-2-yl)carbonylthiosemicarbazide] | 19.5 µg/mL (≈ 57.1 µM) | 158 to 160 °C |  | 15.6 to 500 µg/mL | 7.81 to 500 µg/mL | 31.2 µg/mL
5 | CCOc1ccc2nc3cc(N)ccc3c(N)c2c1 [Ethacridine lactate, ethacridine lactate, reference compound] | 6.88 µg/mL |  |  |  |  | 
6 | [H]/N=C(\N/C(=N/[H])NCCCCCCNC(=N)NC(=N)Nc1ccc(Cl)cc1)Nc1ccc(Cl)cc1 [CLX, chlorhexidine digluconate, reference compound] | 8.46 µg/mL |  |  |  |  | 
